Data as given in ChEMBL document CHEMBL1139625, “Synthesis and binding affinity of novel 3-aminoethyl-1-tetralones, potential atypical antipsychotics” (Bioorg Med Chem Lett, 2005).

Tests used:
[1] = Ratio of inhibitory constant for 5-hydroxytryptamine 2A receptor to that of dopamine receptor D2
[2] = Inhibitory constant towards 5-hydroxytryptamine 2A receptor (5-HT2A)
[3] = Inhibitory constant towards 5-hydroxytryptamine 2C receptor (5-HT2C)
[4] = Inhibitory constant towards dopamine D2 receptor was determined

COc1ccc2c(c1)CC(CN1CCC(c3noc4cc(F)ccc34)CC1)CC2=O (centres undefined)
Ratio [1]: 1.16 | Log Ki [2]: -7.34 | Log Ki [3]: -5.79

O=C(CCCN1CCC(O)(c2ccc(Cl)cc2)CC1)c1ccc(F)cc1 [HALOPERIDOL]
Log Ki [4]: -9.22

COc1ccc2c(c1)C(=O)CC(CCN1CCC(c3noc4cc(F)ccc34)CC1)C2 (centres undefined)
Ratio [1]: 1.17 | Log Ki [2]: -8.23 | Log Ki [3]: -6.89 | Log Ki [4]: -7.04

CN1CCN(C2=Nc3cc(Cl)ccc3Nc3ccccc32)CC1 [CLOZAPINE]
Log Ki [4]: -6.65

COc1ccc2c(c1)C(=O)CC(CCN1CCC3(CC1)NCNC3=O)C2 (centres undefined)
Log Ki [2]: < -5 | Log Ki [3]: < -5 | Log Ki [4]: < -5

O=C1CC(CCN2CCC3(CC2)NCNC3=O)Cc2ccccc21 (centres undefined)
Log Ki [2]: < -5 | Log Ki [3]: < -5 | Log Ki [4]: < -5

COc1ccccc1N1CCN(CCC2CC(=O)c3ccccc3C2)CC1 (centres undefined)
Ratio [1]: 0.95 | Log Ki [2]: -6.59 | Log Ki [3]: -6.35 | Log Ki [4]: -6.97

COc1ccc2c(c1)C(=O)CC(CCN1CCN(c3ccccn3)CC1)C2 (centres undefined)
Log Ki [2]: -6.33 | Log Ki [3]: -5.81 | Log Ki [4]: < -5

O=C1CC(CN2CCC(c3noc4cc(F)ccc34)CC2)Cc2ccccc21 (centres undefined)
Ratio [1]: 1.18 | Log Ki [2]: -8.57 | Log Ki [3]: -6.89

COc1cc2c(cc1OC)C(=O)CC(CN1CCC(c3noc4cc(F)ccc34)CC1)C2 (centres undefined)
Ratio [1]: 1.18 | Log Ki [2]: -8.02

O=C1CC(CCN2CCN(c3ccccn3)CC2)Cc2ccccc21 (centres undefined)
Log Ki [2]: -6.54 | Log Ki [3]: < -5 | Log Ki [4]: < -5

O=C1NC(=O)C2(CCN(CCC3CC(=O)c4ccccc4C3)CC2)N1 (centres undefined)
Log Ki [2]: -6.15 | Log Ki [3]: -7.05 | Log Ki [4]: < -5

COc1ccc2c(c1)C(=O)CC(CCN1CCC3(CC1)NC(=O)NC3=O)C2 (centres undefined)
Log Ki [2]: -5.98 | Log Ki [3]: -6.9 | Log Ki [4]: < -5

COc1ccc2c(c1)C(=O)CC(CCN1CCN(c3ccccc3OC)CC1)C2 (centres undefined)
Ratio [1]: 1.01 | Log Ki [2]: -6.65 | Log Ki [3]: -5.72 | Log Ki [4]: -6.55

O=C1CC(CCN2CCC(c3noc4cc(F)ccc34)CC2)Cc2ccccc21 (centres undefined)
Ratio [1]: 1.38 | Log Ki [2]: -8.29 | Log Ki [3]: -7.06 | Log Ki [4]: -5.98
